Data on nine molecules can be found in PMC6337391 (Molecules, 2019).

Data set [1] in a line: Reducing activity with the stable radical DPPH. The method, then: The chalcones were studied for the antioxidant activity (reducing activity RA%) by the use of the stable free radical 2,2-diphenyl-1-picrylhydrazyl radical (DPPH) at concentrations 0.05 mM after 20 and 60 min (Table 2). In this procedure, the dominant chemical reaction involved is the reduction of the DPPH radical by single electron transfer from the antioxidant. […] For the sake of comparison, we measured the RA% values for the intermediate double ethers d which were included in the Table 2.
To a solution of DPPH (final concentration 0.05 mM) in absolute ethanol an equal volume of the compounds solution in DMSO (stock solution 10 mM) dissolved in ethanol was added. Absolute ethanol was used as a control. The concentrations of the solutions of the compounds were 0.05 and 0.1 mM. The absorbance was recorded at 517 nm at room temperature after 20 and 60 min [29] (Table 2).

The nature of data set [2]: ABTS•+ decolorization assay. Here is the method:
The decolorization assay is used to evaluate the antioxidant activity. The ABTS^•+ cationic radical is derived from the direct oxidation of ABTS by potassium persulfate. No involvement of an intermediary radical is observed. The addition of electron-donating antioxidants reduce ABTS^•+.
Stock solutions of the tested compounds in DMSO (10 mM) were diluted. […] aliquots of each sample were added into the ABTS·^+ solution and the absorbance was recorded at room temperature. Trolox was used as a standard.

Data set [3] can be described thus: Lipophilicity as RM values by RP-TLC. The note with it: methanol/water 70/30, SD < 10%. The arrangement: key: RM = log[(1/Rf) − 1]. It is filed as physicochemical. From the text:
It is well-documented and discussed in the literature that lipophilicity is a very significant physicochemical property which may critically affect distribution, bioavailability, metabolic activity and elimination, all the useful characteristics for the kinetics of biologically active compounds. Thus, we attempted to determine experimentally the lipophilicity of the synthesized compounds from the RPTLC method as RM values. The method is considered to be a reliable, fast and convenient method for expressing lipophilicity. Moreover, many calculated methods were used in order to predict the logP value.
Reversed phase TLC (RP-TLC) was performed on silica gel plates impregnated with 5% (v/v) liquid paraffin in light petroleum ether. The mobile phase was a methanol/water mixture (70/30, v/v). The plates were developed in closed chromatography tanks saturated with the mobile phase at 24 °C. Spots were detected under UV light. Five individual measurements of Rf values were recorded and used for the determination of RM using the equation RM = log [(1/Rf) − 1]. (Table 3).

In data set [4] the target is T1, soybean lipoxygenase (Glycine max, UniProt P08170).
T1 sequence (P08170 1-839): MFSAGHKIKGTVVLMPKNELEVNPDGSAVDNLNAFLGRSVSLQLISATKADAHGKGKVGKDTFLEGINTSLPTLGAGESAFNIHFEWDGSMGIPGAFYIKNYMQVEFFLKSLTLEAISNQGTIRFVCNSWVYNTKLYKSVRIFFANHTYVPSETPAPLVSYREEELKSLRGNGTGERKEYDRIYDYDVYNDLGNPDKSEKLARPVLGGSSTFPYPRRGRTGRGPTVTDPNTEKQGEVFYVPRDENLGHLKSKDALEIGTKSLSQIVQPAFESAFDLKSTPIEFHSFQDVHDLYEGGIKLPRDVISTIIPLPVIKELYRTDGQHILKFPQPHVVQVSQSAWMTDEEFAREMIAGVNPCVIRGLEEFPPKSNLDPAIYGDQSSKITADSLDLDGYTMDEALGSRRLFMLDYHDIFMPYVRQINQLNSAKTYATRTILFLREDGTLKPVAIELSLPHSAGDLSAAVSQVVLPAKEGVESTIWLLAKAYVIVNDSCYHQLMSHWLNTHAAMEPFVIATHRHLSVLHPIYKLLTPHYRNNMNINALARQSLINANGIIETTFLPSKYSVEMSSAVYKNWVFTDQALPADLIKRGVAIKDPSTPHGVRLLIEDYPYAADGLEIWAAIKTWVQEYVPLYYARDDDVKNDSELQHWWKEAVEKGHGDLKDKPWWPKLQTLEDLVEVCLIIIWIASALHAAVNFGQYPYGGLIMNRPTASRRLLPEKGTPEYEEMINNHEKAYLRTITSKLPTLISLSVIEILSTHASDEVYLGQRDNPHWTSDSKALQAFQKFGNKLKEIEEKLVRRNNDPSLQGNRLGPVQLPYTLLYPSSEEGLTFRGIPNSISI
Nature of the data set: biochemical. As to conditions: soybean LOX, 100 μM. It is filed as biochemical. The text has this:
In our experiments we used soybean lipoxygenase. Designing agents to modulate activities of the variety of so closely homologous enzymes, such as different LOXs, require an intimate knowledge of their 3D structures, as well as information about metabolism of the potential xenobiotics. […] Due to lack of sufficiently-purified human enzymes most of the research has been done on soybean LOX [52, 53]. Although this enzyme is not identical to the mammalian one, it seems that there is a sufficient qualitative correlation between values for enzyme inhibition with the two enzymes.
In vitro study was evaluated as reported previously. The tested compounds as stock solutions were dissolved in DMSO. Ten microliters (10 μL) were incubated at room temperature with sodium linoleate ([…]) and 0.2 mL of enzyme solution (1/9 × 10^−4 w/v in saline) in buffer pH 9 (tris) at room temperature (final volume 1 mL). […] Several concentrations were used for the determination of IC50 values.

Data set [5] is described as follows: Inhibition of linoleic acid lipid peroxidation (AAPH). From the text:
The water soluble 2,2′-azobis(2-amidinopropane) hydrochloride (AAPH) generates in vitro free radicals through spontaneous thermal decomposition. […] Overall, chalcones a, b, and c present anti-lipid peroxidation activity. […] The inhibiting activities for the rest b chalcones ranged from 15–44%. The intermediate ethers are moderate inhibitors. […] This might be correlated with the presence of the double C=C–COCH3 group. […] Both have a long ether chain in their structure.
In an aqueous solution spectrophotometrically at 234 nm the production of conjugated diene hydro peroxide by oxidation of sodium linoleate was monitored and recorded according to our previous published experimental conditions, using 10 µL of the 16 mM sodium linoleate solution added to the UV cuvette containing 930 μL of 0.05 M phosphate buffer, pH 7.4 pre-thermostated at 37 °C, under air by the addition of 50 μL of 40 mM AAPH solution, which was used as a free radical initiator. Ten microliters (10 μL) of the appropriate solutions of the tested compounds were added in the mixture, whereas same level of DMSO was used as a blank for the measurement of lipid oxidation. The rate of oxidation at 37 °C was monitored by recording the increase in absorption at 234 nm caused by conjugated diene hydro peroxides.

The subject of data set [6] is L929 mouse fibroblasts cells. Nature of the data set: Cytotoxicity, propidium iodide fluorescence method. As to conditions: 24-h incubation. It is filed as cell-based. The method, then:
The cytotoxicity of the synthesized derivatives against L929 mouse fibroblasts cells was determined using the propidium iodide (PI) fluorescence method in the presence of different concentrations (1–100 μM) of these compounds. The results are presented in Table 4 in the form of the % cell survival values as PI% for the examined compounds. […] Chalcones c7, c8, c11, and c12 follow.
L929 mouse fibroblasts cells were cultured in EMEM supplemented with 10% horse serum, 2 mM L-glutamine, 1 mM sodium pyruvate, 0.1 mM nonessential amino acids, 1.5 g/L sodium bicarbonate, and 100 μg/mL penicillin–streptomycin at 37 °C in a humidified atmosphere with 5% CO2. L929 cells were plated into 24-well plates at a density […] and allowed to attach and grow for 24 h. The supernatant in each well then replaced with medium containing various concentrations (1, 10, 20, 50 and 100 μM) of compounds a5–12, c5–12, di, and dii–dvi, which presented the more interesting results in the in vitro experiments. After 24-h incubation, the supernatant was removed and the cells were washed with PBS. The cells were detached with 0.25% trypsin, transferred to FACS tubes, and then centrifuged (1600 rpm for 5 min) and the pellet washed with PBS. After washing, the cells in the pellet were incubated with 5 μL propidium iodide (PI) solution (1 mg/mL) for 1 min. The PI fluorescence (cell death) was determined with flow cytometry, FACS Calibur, Coulter Epics XL-MCL (Beckman, Inc., Mount Holly, NJ, USA). The analysis of flow cytometry data was performed with the WinMDI analysis program (Table 4).

As for `CC(Cc1ccc(O)c(O)c1)C(C)Cc1ccc(O)c(O)c1` (centres unmarked) [NDGA, Nordihydroguaiaretic acid, reference compound], in data set [1], the “RA% 100 μM 20 min” value is listed as 81% and the “RA% 100 μM 60 min” value is listed as 83%.

With `Nc1c2c(nc3ccccc13)CCCC2` [Tacrine, reference compound], the “ABTS•+ Inhb. % @ 100 μM” value in data set [2] worked out at 88%.

Turning to `O=C(/C=C/c1ccccc1)c1ccc(O)cc1` [a13, (E)-1-(4-hydroxyphenyl)-3-phenylprop-2-en-1-one], in data set [2], the “ABTS•+ Inhb. % @ 100 μM” value is given as “No”. Also, the RM in data set [3] is recorded as −0.73. Also, in data set [1], the “RA% 100 μM 20 min” value is 7% and the “RA% 100 μM 60 min” value is given as 3%. The “% LOX Inhb. @ 100 μM” value in data set [4] was 23%. Further, the “AAPH% @ 100 μM (anti-lipid peroxidation)” value in data set [5] came out at 38%.

As to `CC(=O)c1ccc(OCCCCOc2ccc(C(C)=O)cc2)cc1` [diii, 1,1′-((butane-1,4-diylbis(oxy))bis(4,1-phenylene))diethanone], the “ABTS•+ Inhb. % @ 100 μM” value in data set [2] was “No”. The same molecule registered an RM in data set [3] of −0.37. In data set [6], the “1 μM Average (% pi) ± σ” value was 14.06 ± 1.36%, the “10 μM Average (% pi) ± σ” value came out at 20 ± 3.12%, the “20 μM Average (% pi) ± σ” value turned out to be 20.76 ± 3.51% and the “50 μM Average (% pi) ± σ” value is given as 32.14 ± 6.99%. Moreover, the “100 μM Average (% pi) ± σ” value in data set [6] turned out to be 32.14 ± 6.99%. Further, in data set [4], the “% LOX Inhb. @ 100 μM” value is reported as 41%. Moreover, the “AAPH% @ 100 μM (anti-lipid peroxidation)” value in data set [5] worked out at 29%.

On to `CC(=O)c1ccc(OCCCCCOc2ccc(C(C)=O)cc2)cc1` [div, 1,1′-((pentane-1,5-diylbis(oxy))bis(4,1-phenylene))diethanone], for which the “ABTS•+ Inhb. % @ 100 μM” value in data set [2] is reported as “No”. Further, in data set [3], the RM is listed as 0.23. In addition, in data set [6], the “1 μM Average (% pi) ± σ” value came to 4.89 ± 0.51%, the “10 μM Average (% pi) ± σ” value was determined as 8.56 ± 3.97%, the “20 μM Average (% pi) ± σ” value is listed as 11.86 ± 2.98% and the “50 μM Average (% pi) ± σ” value amounted to 17.05 ± 1.46%. Besides, the “100 μM Average (% pi) ± σ” value in data set [6] was 17.05 ±1.46%. Further, the “% LOX Inhb. @ 100 μM” value in data set [4] amounted to 17%. Besides, in data set [5], the “AAPH% @ 100 μM (anti-lipid peroxidation)” value turned out to be 30%.

`CC(=O)c1ccc(OCCCCCCOc2ccc(C(C)=O)cc2)cc1` [dv, 1,1′-((hexane-1,6-diylbis(oxy))bis(4,1-phenylene))diethanone]: in data set [2], the “ABTS•+ Inhb. % @ 100 μM” value is “No”. The molecule further returned an RM in data set [3] of −0.53. Moreover, in data set [6], the “1 μM Average (% pi) ± σ” value came out at 4.47 ± 0.59%, the “10 μM Average (% pi) ± σ” value was 6.83 ± 2.46%, the “20 μM Average (% pi) ± σ” value came out at 8.05 ± 3.58% and the “50 μM Average (% pi) ± σ” value worked out at 9.69 ± 0.57%. Besides, in data set [6], the “100 μM Average (% pi) ± σ” value worked out at 9.69 ± 0.57%. Further, the “% LOX Inhb. @ 100 μM” value in data set [4] was 7%. For the same molecule, the “AAPH% @ 100 μM (anti-lipid peroxidation)” value in data set [5] was found to be 18%.

On to `CC(=O)c1ccc(OCCCCCCCCOc2ccc(C(C)=O)cc2)cc1` [dvii, 1,1′-((octane-1,8-diylbis(oxy))bis-(4,1-phenylene))diethanone], for which the “ABTS•+ Inhb. % @ 100 μM” value in data set [2] is recorded as “No”. Besides, the RM in data set [3] is recorded as −0.36. In addition, the “% LOX Inhb. @ 100 μM” value in data set [4] came to 5%. Also, the “AAPH% @ 100 μM (anti-lipid peroxidation)” value in data set [5] is 27%.

Take `CN(C)c1ccc(/C=C/C=C/C(=O)c2ccc(OCCCCCCOc3ccc(C(=O)/C=C/C=C/c4ccc(N(C)C)cc4)cc3)cc2)cc1` [ev, (2E,2′E,4E,4′E)-1,1′-((hexane-1,6-diylbis(oxy))bis(4,1-phenylene))bis(5-(4-(dimethylamino)phenyl)penta-2,4-dien-1-one)]: in data set [2], the “ABTS•+ Inhb. % @ 100 μM” value stood at 25%. Moreover, in data set [1], the “RA% 100 μM 20 min” value was “No” and the “RA% 100 μM 60 min” value is listed as “no”. For the same molecule, the “% LOX Inhb. @ 100 μM” value in data set [4] was determined as 7%. Moreover, the “AAPH% @ 100 μM (anti-lipid peroxidation)” value in data set [5] was found to be 14%.

For the molecule `CN(C)c1ccc(/C=C/C=C/C(=O)c2ccc(OCCCCCCCCOc3ccc(C(=O)/C=C/C=C/c4ccc(N(C)C)cc4)cc3)cc2)cc1` [evii, (2E,2′E,4E,4′E)-1,1′-((octane-1,8-diylbis(oxy))bis(4,1-phenylene))bis(5-(4-(dimethylamino)phenyl)penta-2,4-dien-1-one)], in data set [2], the “ABTS•+ Inhb. % @ 100 μM” value stood at 88%. Also, in data set [1], the “RA% 100 μM 20 min” value is reported as “No” and the “RA% 100 μM 60 min” value is “no”. Also, the “% LOX Inhb. @ 100 μM” value in data set [4] was 12%. Also, the “AAPH% @ 100 μM (anti-lipid peroxidation)” value in data set [5] is recorded as 6%.
